{
  "source": "PubChem BioAssay AID1259411",
  "about": "(Chemical Carcinogenesis Research Information System (CCRIS), 2018)",
  "test_system": "rodent carcinogenicity bioassays, tumor incidence",
  "assay": "CCRIS carcinogenicity studies",
  "method_in_brief": "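NCI-built, expert-reviewed records of carcinogenicity and related test outcomes (mutagenicity, tumor promotion/inhibition) compiled from published and report sources, historical span 1985-2011, not updated.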",
  "note": "The source made the active and inactive calls. No rule for the calls is given here.",
  "data": [
    {"smiles": "Cc1c2ccccc2c(COS(=O)(=O)O)c2ccc3ccccc3c12", "values": [
      {"measurement": "carcinogen call", "setting": "Species: MOUSE, Strain/Sex: B6C3F1/MALE, Route: INTRAPERITONEAL, Dose: 0, 0.001, 0.003, 0.01 UMOL/G IN 5 µL/G DMSO ONCE ON D 12 OF AGE (STUDY DURATION: 10 MO), Dose: 0, 0.001, 0.003, 0.01 UMOL/G IN 5 µL/G DMSO ONCE ON D 12 OF AGE (STUDY DURATION: 10 MO), Tumor Site: Type of Lesion: LIVER: HEPATOMA", "value": "active; positive"},
      {"measurement": "carcinogen call", "setting": "Species: MOUSE, Strain/Sex: B6C3F1/MALE, Route: INTRAPERITONEAL, Dose: 0, 0.0025 UMO1/G IN 10 ML/G TRIOCTANOIN ON 12, 16, 20, AND 24 D OF AGE (STUDY DURATION: 10 MO), Tumor Site: Type of Lesion: LIVER: HEPATOMA", "value": "active; positive"},
      {"measurement": "carcinogen call", "setting": "Species: MOUSE, Strain/Sex: B6C3F1/MALE, Route: INTRAPERITONEAL, Dose: 0, 0.0025 UMOL/G IN 10 µL/G TRIOCTANOIN ONCE ON D 12 OF AGE (STUDY DURATION: 10 MO), Tumor Site: Type of Lesion: LIVER: HEPATOMA", "value": "active; positive"},
      {"measurement": "carcinogen call", "setting": "Species: MOUSE, Strain/Sex: STRAIN-A/FEMALE, Route: INTRAPERITONEAL, Dose: 0, 0.1 001;0.003, 0.01 UMOL/G IN 5 µL DMSO/G ONCE AT 4-6 WK OF AGE (STUDY DURATION: 6 MO), Dose: 0, 0.1 001;0.003, 0.01 UMOL/G IN 5 µL DMSO/G ONCE AT 4-6 WK OF AGE (STUDY DURATION: 6 MO)", "value": "inactive; negative"},
      {"measurement": "carcinogen call", "setting": "Species: RAT, Strain/Sex: SPRAGUE-DAWLEY/FEMALE, Route: SUBCUTANEOUS, Dose: 0, 0.2 UMOL 3/WK FOR 20 DOSES (STUDY DURATION: 52 WK), Tumor Site: Type of Lesion: INJECTION SITE: SARCOMA", "value": "active; positive"},
      {"measurement": "carcinogen call", "setting": "Species: RAT, Strain/Sex: SPRAGUE-DAWLEY/FEMALE, Route: SUBCUTANEOUS, Dose: 0, 2 UMOL IN 0.25 ML TRIOCTANOIN INTO LEFT HIND LEG AT ABOUT 40 D OF AGE FOLLOWED BY A SECOND DOSE 6 D LATER (STUDY DURA", "value": "inactive; negative"},
      {"measurement": "carcinogen call", "setting": "Species: RAT, Strain/Sex: SPRAGUE-DAWLEY/FEMALE, Route: SUBCUTANEOUS, Dose: 0, 2 UMOL IN 0.25 ML TRIOCTANOIN ONCE INTO LEFT HIND LEG AT ABOUT 40 D OF AGE (STUDY DURATION: 16 MO)", "value": "inactive; negative"}
    ]},
    {"smiles": "CC(C)CCC[C@@H](C)[C@H]1CC[C@H]2[C@@H]3CC=C4C[C@@H](OC(=O)Cc5ccc(N(CCCl)CCCl)cc5)CC[C@]4(C)[C@H]3CC[C@]12C", "values": [
      {"measurement": "carcinogen call", "setting": "Species: MOUSE, Strain/Sex: B6C3F1/FEMALE, Route: GAVAGE, Dose: 0, 7, 15, 30 MG/KG 3/WK FOR 52-88 WK (STUDY DURATION: 62-104 WK), Dose: 0, 7, 15, 30 MG/KG 3/WK FOR 52-88 WK (STUDY DURATION: 62-104 WK), Tumor Site: Type of Lesion: LUNG: ALVEOLAR/BRONCHIOLAR ADENOMA, CARCINOMA, MYOCARDIUM: SARCOMA, OVARIES: TUBULAR ADENOMA, HEMATOPOIETIC SYSTEM (LEUK, Tumor Site: Type of Lesion: LUNG: ALVEOLAR/BRONCHIOLAR ADENOMA, CARCINOMA, MYOCARDIUM: SARCOMA, OVARIES: TUBULAR ADENOMA, HEMATOPOIETIC SYSTEM (LEUK", "value": "active; positive"},
      {"measurement": "carcinogen call", "setting": "Species: MOUSE, Strain/Sex: B6C3F1/MALE, Route: GAVAGE, Dose: 0, 7, 15, 30 MG/KG 3/WK FOR 52-102 WK (STUDY DURATION: 74-104 WK), Dose: 0, 7, 15, 30 MG/KG 3/WK FOR 52-102 WK (STUDY DURATION: 74-104 WK), Tumor Site: Type of Lesion: LUNG: ALVEOLAR/BRONCHIOLAR ADENOMA, CARCINOMA, HEMATOPOIETIC SYSTEM (LEUKEMIA), LYMPHATIC SYSTEM: LYMPHOMA, MYOCARDIUM:, Tumor Site: Type of Lesion: LUNG: ALVEOLAR/BRONCHIOLAR ADENOMA, CARCINOMA, HEMATOPOIETIC SYSTEM (LEUKEMIA), LYMPHATIC SYSTEM: LYMPHOMA, MYOCARDIUM:", "value": "active; positive"},
      {"measurement": "carcinogen call", "setting": "Species: RAT, Strain/Sex: SPRAGUE-DAWLEY/FEMALE, Route: GAVAGE, Dose: 0, 5, 10 MG/KG 3/WK FOR 52 WKS (STUDY DURATION: 84-85 WK), Dose: 0, 5, 10 MG/KG 3/WK FOR 52 WKS (STUDY DURATION: 84-85 WK), Tumor Site: Type of Lesion: MAMMARY GLAND: ADENOCARCINOMA, FIBROADENOMA", "value": "active; positive"},
      {"measurement": "carcinogen call", "setting": "Species: RAT, Strain/Sex: SPRAGUE-DAWLEY/MALE, Route: GAVAGE, Dose: 0, 5, 10 MG/KG 3/WK FOR 52 WK (STUDY DURATION: 84-85 WK), Dose: 0, 5, 10 MG/KG 3/WK FOR 52 WK (STUDY DURATION: 84-85 WK)", "value": "inactive; negative"}
    ]},
    {"smiles": "COc1c(N2C[C@@H]3CCCN[C@@H]3C2)c(F)cc2c(=O)c(C(=O)O)cn(C3CC3)c12", "values": [
      {"measurement": "carcinogen call", "setting": "Species: RAT, Strain/Sex: WISTAR/MALE, FEMALE, Route: GAVAGE, Dose: 0, 500 MG/KG BW/D FOR 38 WK (STUDY DURATION: 38 WK)", "value": "inactive; negative"}
    ]},
    {"smiles": "C/[N+]([O-])=N/CO", "values": [
      {"measurement": "carcinogen call", "setting": "Species: HAMSTER, Strain/Sex: SYRIAN/MALE,FEMALE, Route: INTRAVENOUS, Dose: 10 MG/KG BW, 4-5 INJ, Tumor Site: Type of Lesion: LIVER: CYSTADENOMA AND CYSTIC LESIONS, VASCULAR TUMOR, HEPATOCELLULAR CARCINOMA, INTESTINES (LARGE): ADENOMA, ADENOCARCI", "value": "active; positive"},
      {"measurement": "carcinogen call", "setting": "Species: HAMSTER, Strain/Sex: SYRIAN/MALE,FEMALE, Route: INTRAVENOUS, Dose: 15 MG/KG BW, 4-5 INJ, Tumor Site: Type of Lesion: LIVER: CYSTADENOMA AND CYSTIC LESIONS, VASCULAR TUMOR, HEPATOCELLULAR CARCINOMA, INTESTINES (LARGE): ADENOMA, ADENOCARCI", "value": "active; positive"},
      {"measurement": "carcinogen call", "setting": "Species: HAMSTER, Strain/Sex: SYRIAN/MALE,FEMALE, Route: INTRAVENOUS, Dose: 20 MG/KG BW, 3 INJ, Tumor Site: Type of Lesion: LIVER: CYSTADENOMA AND CYSTIC LESIONS, GALL BLADDER: ADENOCARCINOMA, INTESTINES (LARGE): ADENOCARCINOMA, Tumor Site: Type of Lesion: LIVER: CYSTADENOMA AND CYSTIC LESIONS, GALL BLADDER: ADENOCARCINOMA, INTESTINES (LARGE): ADENOCARCINOMA", "value": "active; positive"},
      {"measurement": "carcinogen call", "setting": "Species: HAMSTER, Strain/Sex: SYRIAN/MALE,FEMALE, Route: INTRAVENOUS, Dose: 20 MG/KG BW, SINGLE DOSE, Tumor Site: Type of Lesion: LIVER: ADENOCARCINOMA, HEPATOCELLULAR CARCINOMA, VASCULAR TUMOR, CYSTADENOMA AND CYSTIC LESIONS, INTESTINES (LARGE): ADE", "value": "active; positive"},
      {"measurement": "carcinogen call", "setting": "Species: RAT, Strain/Sex: SPRAGUE-DAWLEY/MALE, Route: INTRAVENOUS, Dose: 25 MG/KG 1/WK FOR 5 WK, Tumor Site: Type of Lesion: INTESTINES (JEJUNUM OR ILEUM), INTESTINES (COLON OR RECTUM), CECUM, DUODENUM, Tumor Site: Type of Lesion: INTESTINES (JEJUNUM OR ILEUM), INTESTINES (COLON OR RECTUM), CECUM, DUODENUM", "value": "active; positive"},
      {"measurement": "carcinogen call", "setting": "Species: RAT, Strain/Sex: SPRAGUE-DAWLEY/MALE, Route: INTRAVENOUS, Dose: 25 MG/KG 1/WK FOR 15 WK, Tumor Site: Type of Lesion: INTESTINES (JEJUNUM OR ILEUM), INTESTINES (COLON OR RECTUM), CECUM, DUODENUM, Tumor Site: Type of Lesion: INTESTINES (JEJUNUM OR ILEUM), INTESTINES (COLON OR RECTUM), CECUM, DUODENUM", "value": "active; positive"},
      {"measurement": "carcinogen call", "setting": "Species: RAT, Strain/Sex: SPRAGUE-DAWLEY/MALE, Route: INTRAVENOUS, Dose: 25 MG/KG, SINGLE DOSE, Tumor Site: Type of Lesion: INTESTINES (JEJUNUM OR ILEUM), INTESTINES (COLON OR RECTUM)", "value": "active; positive"}
    ]},
    {"smiles": "CCCC(OC(C)=O)N(CCCC(=O)OC)N=O", "note": "(centres undefined)", "values": [
      {"measurement": "carcinogen call", "setting": "Species: RAT, Strain/Sex: F344/MALE,FEMALE, Route: SUBCUTANEOUS, Dose: 38 UMOL/KG IN OLIVE OIL 1/WK FOR 10 WK, Tumor Site: Type of Lesion: INJECTION SITE: MALIGNANT FIBROUS HISTIOCYTOMA", "value": "active; positive"}
    ]},
    {"smiles": "O=[N+]([O-])c1ccc(NCCO)c(OCCO)c1", "values": [
      {"measurement": "carcinogen call", "setting": "Species: MOUSE, Strain/Sex: B6C3F1/FEMALE, Route: ORAL, Dose: 0, 5000, 10000 PPM IN FEED 7 D/WK FOR 104 WK (STUDY DURATION: 2 YR), Dose: 0, 5000, 10000 PPM IN FEED 7 D/WK FOR 104 WK (STUDY DURATION: 2 YR)", "value": "inactive; negative"},
      {"measurement": "carcinogen call", "setting": "Species: MOUSE, Strain/Sex: B6C3F1/MALE, Route: ORAL, Dose: 0, 5000, 10000 PPM IN FEED 7 D/WK FOR 104 WK (STUDY DURATION: 2 YR), Dose: 0, 5000, 10000 PPM IN FEED 7 D/WK FOR 104 WK (STUDY DURATION: 2 YR)", "value": "inactive; negative"},
      {"measurement": "carcinogen call", "setting": "Species: RAT, Strain/Sex: F344/FEMALE, Route: ORAL, Dose: 0, 5000, 10000 PPM IN FEED 7 D/WK FOR 104 WK (STUDY DURATION: 2 YR), Dose: 0, 5000, 10000 PPM IN FEED 7 D/WK FOR 104 WK (STUDY DURATION: 2 YR)", "value": "inactive; negative"},
      {"measurement": "carcinogen call", "setting": "Species: RAT, Strain/Sex: F344/MALE, Route: ORAL, Dose: 0, 5000, 10000 PPM IN FEED 7 D/WK FOR 104 WK (STUDY DURATION: 105 WK), Dose: 0, 5000, 10000 PPM IN FEED 7 D/WK FOR 104 WK (STUDY DURATION: 105 WK), Tumor Site: Type of Lesion: PITUITARY GLAND (PARS DISTALIS): ADENOMA", "value": "equivocal"}
    ]}
  ]
}
